Earlier results as cited in PMC9528030 (ACS chemical biology, 2022).

System: SARS-CoV-2
Conditions: read-out: EC50 in a CPE assay; cited from earlier work

Q: Which EC50 does the source give for `C[C@@H](OC(C)(C)C)[C@H](NC(=O)OCc1ccccc1)C(=O)N[C@@H](CC1CCCCC1)C(=O)N[C@H](C=O)C[C@@H]1CCNC1=O` [MPI8] here?
A: 30 nM
